Values quoted from earlier work as cited in patent publication US8093271B2, “Anti-acid pharmaceutical composition in powder form and process for making it” (Laboratorios Bago S.A., priority 2006, dated 2012).
Where two headings read alike, the source gives them in different places.

Tests used:
[1] = in water

half life ([1]; pH near 7): about 14 hours
half life ([1]; pH of 4): lower than 10 minutes
time by which absorption is completed (absorption in the small intestine): 3 to 6 h
time required to reach the intestine (fasting state): 20 to 30 min
SMILES: COc1ccc2[nH]c([S+]([O-])Cc3ncc(C)c(OC)c3C)nc2c1 (stereo not shown) [omeprazole]
